Test results: patent publication US8735375B2, “Therapeutic compositions” (Leo Laboratories Limited, priority 2005, dated 2014)

What was measured:
Assay type in all cases: physicochemical
[1] = Preliminary stability of I3A in fractionated coconut oil
Protocol: Approximately 10 mg of […] was accurately weighed into a 28 ml glass vial and added to approximately 200 mg of benzyl alcohol (exact weight noted), which had previously been filtered through a 0.22 μm MILLEX-GV filter. This mixture was periodically vortexed for approximately 2 h until the […] had dissolved in the benzyl alcohol. […] Aliquots of each formulation (placebo or active) were dispensed into 2 ml screw cap amber glass vials (borosilicate glass), sealed and stored at two storage conditions namely 2-8° C. and 25±2° C. […]

[2] = Stability of I3A 'b' in isopropanol gel (pH 6.5); conditions: 0.02% (w/w) I3A 'b' in isopropanol gel pH 6.5; 2-8° C., RTP and 40° C.
Protocol: The stability of I3A ‘b’ in an isopropanol gel preparation (pH 6.5) was investigated. The protocol was as follows:
The Carbopol® was dispersed in the water and glycerin and dissolved by heating to 40° C. in a water bath. The propyl alcohol was then added to this solution. The cyclomethicone was dissolved in the isopropyl alcohol and this second solution was mixed well with the Carbopol® solution, and then water was added, with stirring, to 100%. The pH of the gel was brought to 6.5 with the dropwise addition of ethanolamine. The isopropanol gel was stored at 2-8° C. until use.
To investigate the stability of I3A ‘b’ in isopropanol gel (pH 6.5), a 0.02% (w/w) I3A ‘b’/Visopropanol gel formulation was prepared and divided into three samples for storage at 2-8° C., RTP and 40° C. At regular time points the samples were analysed in duplicate for the stability of I3A ‘b’ in terms of the formation of isoform ‘a’, with the results given in FIG. 2.

Stability of I3A in DMSO = conditions: 10 days
Protocol: I3A was investigated for stability in DMSO at room temperature and at 37° C. over a 10 day time period. A control sample of I3A in acetonitrile was kept under the same conditions as the test sample. The samples were analysed by HPLC at the start of the experiment (Day 0), after 48 hours (Day 2) and again after 10 days.
The chromatographic conditions employed were as follows: […]

[3] = Stability of I3A isoforms in the assay solvent systems over 72 h
Protocol: The stability of […] isoforms 'a', 'b' and 'c' in the three sample systems over 72 h (equivalent to the maximum possible length of time the samples might be held in the autosampler during a long HPLC analytical run) was confirmed as follows. Standards of the three isoforms of […] The standards were then each divided into three equal volumes and placed at 2-8° C., room temperature and 40° C. for 72 h and were then again analysed by HPLC.

[4] = Dilution of I3A with normal saline (isoform conversion)
Excerpt: Oils may also be used in the present invention. The use of an emulsion based intralesional formulation has been reported for the treatment of psoriasis (Ho et al., 1990). Prior to administration, a vehicle, such as polyoxyethylated castor oil, is normally diluted with saline to form the emulsion. […] This conversion may be minimised if the administration time of the formulation is short.

[5] = Stability study of I3A in solvents/excipients at room temperature (HPLC ratio of isoform 'b' to 'a' and 'c')
Protocol: A stability study of I3A in the following solvent/excipients/excipient combinations was performed over 14 days (except where otherwise stated) at room temperature:
A 0.5 mg/ml stock solution of I3A in acetonitrile was prepared. Aliquots of 1.0 ml were transferred to individual glass sample vials by a burette; the solutions were dried by air jet and then 1.0 g of the respective solvent/excipient/excipient combination was added to the vials. On Day 0, Day 5 and Day 14, aliquots of the stability samples were removed for HPLC analysis using the chromatographic conditions described under “Stability in DMSO”, below. Stability was expressed as the ratio of peak ‘b’ to peak ‘a’ (and peak ‘c’ if present), with a high ratio indicating stability in a particular excipient.
The chromatographic conditions employed for the excipients stability study were as follows:
It is assumed that for an excipient in which I3A is not stable, other like excipients will not be suitable.

[6] = Acetonitrile/Citrate buffer (pH 3), 72 h 2-8° C.
[7] = Acetonitrile/Citrate buffer (pH 3), 72 h 40° C.
[8] = Acetonitrile/Citrate buffer (pH 3), 72 h RTP
[9] = Acetonitrile/Citrate buffer (pH 3), Time 0 h
[10] = Acetonitrile/Sodium acetate buffer (pH 4.5), 72 h 2-8° C.
[11] = Acetonitrile/Sodium acetate buffer (pH 4.5), 72 h 40° C.
[12] = Acetonitrile/Sodium acetate buffer (pH 4.5), 72 h RTP
[13] = Acetonitrile/Sodium acetate buffer (pH 4.5), Time 0 h
[14] = I3A in Mineral oil, room temperature, 14 days

With `C/C=C(/C)C(=O)O[C@H]1C(C)=C[C@]23C(=O)[C@H](C=C(CO)[C@@H](O)[C@]12O)[C@H]1[C@@H](C[C@H]3C)C1(C)C` [Formulation I3A, ingenol-3-angelate] the “% I3A ‘a’ (isoform ‘a’ as a percentage of isoform ‘a’ and I3A ‘b’)” value ([1]; 0.1% w/w I3A in fractionated coconut oil/2% benzyl alcohol, Time 0) was 1.90%, the “% I3A ‘a’” value ([1]; Fresh sample I3A in Acetonitrile at time 43 days) was 2.14% and the “% I3A ‘a’ (isoform ‘a’ as a percentage of isoform ‘a’ and I3A ‘b’)” value ([1]; Fresh sample I3A in Acetonitrile at time zero) was 2.50%. For the same molecule, the “% I3A ‘a’” value ([1]; I3A in fractionated coconut oil formulation, Time 5 days (2-8° C.)) was 1.86%, the “% I3A ‘a’” value ([1]; I3A in fractionated coconut oil formulation, Time 5 days (25° C.)) was 1.97% and the “% I3A ‘a’” value ([1]; I3A in fractionated coconut oil formulation, Time 20 days (2-8° C.)) was 1.94%. For the same molecule, the “% I3A ‘a’” value ([1]; I3A in fractionated coconut oil formulation, Time 20 days (25° C.)) was 1.93%, the “% I3A ‘a’” value ([1]; I3A in fractionated coconut oil formulation, Time 28 days (2-8° C.)) was 1.93% and the “% I3A ‘a’” value ([1]; I3A in fractionated coconut oil formulation, Time 28 days (25° C.)) was 1.94%. For the same molecule, the “% I3A ‘a’” value ([1]; I3A in fractionated coconut oil formulation, Time 43 days (2-8° C.)) was 1.95%, the “% I3A ‘a’” value ([1]; I3A in fractionated coconut oil formulation, Time 43 days (25° C.)) was 1.91% and the “change in percentage of isoform ‘a’ during storage” value ([1]; I3A in fractionated coconut oil, 2-8 and 25° C., 43 days) was “no increase in the percentage of isoform ‘a’”. For the same molecule, the “stability in terms of the formation of isoform 'a'” value [2] was “rearranges to isoform ‘a’ and subsequently isoform ‘c’”, the stability (Stability of I3A in DMSO; 37° C.) was “stable” and the stability (Stability of I3A in DMSO; room temperature) was “stable”. For the same molecule, the “% ‘a’” value ([3]; Acetonitrile, 72 h 2-8° C.) was 3.94%, the “% ‘b’” value ([3]; Acetonitrile, 72 h 2-8° C.) was 95.45% and the “% ‘c’” value ([3]; Acetonitrile, 72 h 2-8° C.) was 0%. The “% ‘a’” value ([3]; Acetonitrile, 72 h 40° C.) was 15.52%, the “% ‘b’” value ([3]; Acetonitrile, 72 h 40° C.) was 83.35% and the “% ‘c’” value ([3]; Acetonitrile, 72 h 40° C.) was 0%. The “% ‘a’” value ([3]; Acetonitrile, 72 h RTP) was 5.83%, the “% ‘b’” value ([3]; Acetonitrile, 72 h RTP) was 93.51% and the “% ‘c’” value ([3]; Acetonitrile, 72 h RTP) was 0%. The “% ‘a’” value ([3]; Acetonitrile, Time 0 h) was 0.39%, the “% ‘b’” value ([3]; Acetonitrile, Time 0 h) was 99.27% and the “% ‘c’” value ([3]; Acetonitrile, Time 0 h) was 0%. For the same molecule, the “% ‘a’” value [3, 6] was 0.18%, the “% ‘b’” value [3, 6] was 99.49% and the “% ‘c’” value [3, 6] was 0%. For the same molecule, the “% ‘a’” value [3, 7] was 0.34%, the “% ‘b’” value [3, 7] was 99.63% and the “% ‘c’” value [3, 7] was 0%. For the same molecule, the “% ‘a’” value [3, 8] was 0.13%, the “% ‘b’” value [3, 8] was 99.76% and the “% ‘c’” value [3, 8] was 0%. For the same molecule, the “% ‘a’” value [3, 9] was 0.13%, the “% ‘b’” value [3, 9] was 99.64% and the “% ‘c’” value [3, 9] was 0%. The “% ‘a’” value [3, 10] was 0.63%, the “% ‘b’” value [3, 10] was 99.02% and the “% ‘c’” value [3, 10] was 0%. The “% ‘a’” value [3, 11] was 6.35%, the “% ‘b’” value [3, 11] was 93.13% and the “% ‘c’” value [3, 11] was 0%. The “% ‘a’” value [3, 12] was 1.16%, the “% ‘b’” value [3, 12] was 98.41% and the “% ‘c’” value [3, 12] was 0%. For the same molecule, the “% ‘a’” value [3, 13] was 0.34%, the “% ‘b’” value [3, 13] was 98.88% and the “% ‘c’” value [3, 13] was 0.01%. For the same molecule, the “conversion of isoform 'b' to 'a'” value [4] was “increases the conversion of isoform ‘b’ to ‘a’”, the “Stable?” value ([5]; I3A in 2-Hydroxypropyl-β-cyclodextrin (Cavasol)/PO4 pH 4.5, room temperature, 14 days) was “√” and the “Stable?” value ([5]; I3A in Acetone, room temperature, 14 days) was “stable and √”. For the same molecule, the “Stable?” value ([5]; I3A in Acetonitrile, room temperature, 14 days) was “stable and √”, the “Stable?” value ([5]; I3A in Ammonium buffer pH 4.5, room temperature) was “stable and √” and the Comments ([5]; I3A in Captisol/H2O, room temperature, 7 days study (comment continues: present)) was “Isoforms ‘a’ and ‘c’”. For the same molecule, the Comments ([5]; I3A in Cavasol/H2O, room temperature, 14 days) was “Large peak for isoform ‘c’”, the Comments ([5]; I3A in Cavasol/PO4 pH 4.5, room temperature, 14 days) was “Some precipitation of I3A” and the “Stable?” value ([5]; I3A in DMSO, room temperature, 10 days study) was “stable and √”. For the same molecule, the Comments ([5]; I3A in Methanol, room temperature, 14 days) was “Isoform ‘a’ forms”, the Comments ([5]; I3A in Methanol/water (70/30), room temperature, 14 days) was “Isoform ‘a’ then ‘c’ form” and the “Stable?” value ([5]; I3A in Miglyol 810, room temperature, 14 days) was “√”. The Comments [5, 14] was “Precipitation of I3A”, the “Stable?” value [5, 14] was “√” and the Comments ([5]; I3A in Oleic acid, room temperature, 14 days (isoform 'a' present, shoulder on 'b', 'c' forming)) was “chromatogram. isoform ‘a’”. For the same molecule, the “Stable?” value ([5]; I3A in Phosphate buffer pH 4.5, room temperature, 14 days) was “stable and √”, the Comments ([5]; I3A in Phosphate buffer pH 5.5, room temperature, 14 days) was “Isoform ‘a’ forms” and the Comments ([5]; I3A in Phosphate buffer pH 6.5, room temperature, 14 days) was “Isoform ‘a’ then ‘c’ form”. The “Stable?” value ([5]; I3A in Polyethylene glycol, room temperature, 14 days) was “√”, the Comments ([5]; I3A in Propylene glycol, room temperature, 14 days (comment continues: isoforms)) was “Formation of ‘a’ and ‘c’” and the Comments ([5]; I3A in Sodium hyaluronate/H2O, room temperature, 2 days study) was “Isoform ‘a’ present”. For the same molecule, the “Stable?” value ([5]; I3A in Sodium hyaluronate/PO4 pH 4.5, room temperature, 2 days study) was “√”, the “Stable?” value ([5]; I3A in Tween 80/Span 80/H2O, room temperature, 14 days) was “√” and the “Stable?” value ([5]; I3A in Tween 80/Span 80/PO4 pH 4.5, room temperature, 14 days) was “√”. The Comments ([5]; I3A in Water, room temperature, 14 days) was “Isoform ‘a’ then ‘c’ form” and the “Stable?” value ([5]; I3A in β-cyclodextrin sulphobutyl ether (Captisol)/PO4 pH 4.5, room temperature, 7 days study) was “√”.
